# According to US20040121991A1, “Dehydroepiandrosterone (DHEA) congeners for prevention and/or treatment of ulcers” (priority 2002, published 2004):
# Values joined by “and” are separate entries in the source; they are usually repeats but may differ in a detail not shown here. Equal values may be shown once.
# Key:
# [1] = test system: TNBS-induced colonic damage; type: in vivo, Male Wistar rats
# Description: In this Example, the effects of DHEA were evaluated in the TNBS model (see, e.g., Boughton-Smith et al., 1988; Morris et al., 1989; Reuter et al., 1996) at a defined oral dose administered twice a day by gavage, using a low intracolonic concentration of TNBS (10 mg). This challenge dose of TNBS is known to generate reproducible yet not unduly severe mucosal injury in the colon, as determined 3 days after instillation. In this current investigation, colonic macroscopic injury has been assessed. In addition to DHEA, the effect of a single daily low oral dose of dexamethasone, which has a broad profile of anti-inflammatory actions, was also evaluated in this model.
# Male Wistar rats (220-300 g) were randomised into groups before commencement of the study. On day 0, the rats were transiently anaesthetised with ether and TNBS (10 mg in 0.25 ml of 50% ethanol) was instilled into the colon using a soft plastic catheter inserted in the rat rectum. The rats were allowed to recover with free access to food and drinking water. At the end of the Experiment, 72 h after TNBS administration (i.e. on the morning of day 3), the distal colon was dissected, photographed and stored appropriately for subsequent analyses. Macroscopic scoring of distal 8 cm of colon was measured as the primary efficacy parameter. In addition, the weight of the colonic segment was assessed as an indirect and non-specific marker of oedema, and the body weight of the animals was determined each day of the study.
# The groups (n=8-12) for study with TNBS challenge were: (a) saline control administered in 0.5 ml p.o. per rat, b.i.d; (b) DHEA (50 mg per rat, b.i.d); (c) dexamethasone (0.3 mg/kg, oral, once daily); (d) control non-challenged with TNBS and non-drug-treated (received only salineb.i.d.). The DHEA was administered orally, twice daily for 48 h before TNBS administration, on Day 0 with TNBS administration and on Day 1 and 2. The DHEA was administered as a solid bicarbonate composite providing high bioavailability. Tissues were removed 72 h after TNBS administration (Day 3). Saline treated animals on the final day were 95.6+/−1.7% of mean starting body weight. Similarly, DHEA-treated animals were 95.4+/−1.1% of their mean starting body weight. Weight loss in the Dexamethasone treatment group was significant at 84.5+/−1.3% of starting weight.
# [2] = test system: oral mucositis; test: Acute radiation model of oral mucositis in hamsters; type: in vivo, Male Golden Syrian hamsters; conditions: day -1 to day 27; for weight change following irradiation: 40 Gy on day 0, DHEA-cyclodextrin complex; for daily mucositis scores vs saline control: score scale 0-5
# Text: The acute radiation model in hamsters (see, e.g., Sonis et al., 2000) has proven to be an accurate, efficient and cost-effective technique to provide a preliminary evaluation of anti-mucositis compounds. The course of mucositis in this model is well defined and results in peak ulceration scores approximately 14-16 days following radiation. The acute model has been used to study specific mechanistic elements in the pathogenesis of mucositis. Molecules that show efficacy in the acute radiation model may be further evaluated in the more complex models of fractionated radiation, chemotherapy, or concomitant therapy. In this example, an acute radiation dose of 40 Gy on day 0 was administered and clinically significant mucositis was observed around day 14.
# Animals. Male Golden Syrian hamsters were randomly and prospectively divided into six (6) treatment groups prior to irradiation as follows:
# Hamsters were given an acute radiation dose directed to their oral mucosa. Test materials were applied by injection (once per day) or by oral dosing (either once or twice per day. Oral administrations were done using feeding needles. Dosing began the day before radiation (day −1) and continued until day 27. The test material utilized was an Inflabloc® pharmaceutical preparation, which, for the present example, comprised a complex of DHEA and cyclodextrin.
# Starting on Day 6 and continuing every second day thereafter (days 8, 10, 12, 14, 16, 18, 20, 22, 24, 26, & 28), each animal was evaluated for mucositis scoring.
# Mucositis Scoring. Parameters measured were the mucositis score, weight change and survival. For the evaluation of mucositis, the animals were anesthetized with inhalation anesthetics, and the left pouch everted. Mucositis was scored visually by comparison to a validated photographic scale, ranging from 0 for normal, to 5 for severe ulceration (clinical scoring).
# A score of 1-2 is considered to represent a mild stage of the disease, whereas a score of 3-5 is considered to indicate moderate to severe mucositis. Following visual scoring, a photograph was taken of each animal's mucosa using a standardized technique. At the conclusion of the experiment, all film was developed and the photographs randomly numbered. At least two independent trained observers graded the photographs in blinded fashion using the above-described scale (blinded scoring).
# The effect on mucositis of each drug treatment compared to placebo was assessed according to these parameters: the difference in the number of days hamsters in each group have severe (score 3) mucositis and the rank sum differences in daily mucositis scores. On each evaluation day, the number of animals with a blinded mucositis score of 3 in each drug treatment group, was compared to the control group. Differences were analyzed on a cumulative basis. For each evaluation day the scores of the control group were compared to those of the placebo group and vehicle group.
# Mucositis Induction. Mucositis was induced using a standardized acute radiation protocol using a single dose of radiation (40 Gy/dose) on Day 0.
smiles,measurement,setting,value
C[C@@H]1C[C@H]2[C@@H]3CCC4=CC(=O)C=C[C@]4(C)[C@@]3(F)[C@@H](O)C[C@]2(C)[C@@]1(O)C(=O)CO [dexamethasone],"area of colonic injury, % of the mucosal area","[1]; dexamethasone 0.3 mg/kg once a day oral, 72 h after TNBS challenge, n=8, TNBS control 48±2%",41±5%
"C[C@]12CC[C@H](O)CC1=CC[C@@H]1[C@@H]2CC[C@]2(C)C(=O)CC[C@@H]12 [DHEA, (3β)-3-hydroxyandrost-5-en-17-one]","body weight on the final day, % of mean starting body weight","[1]; DHEA 50 mg per rat b.i.d. oral, solid bicarbonate composite, TNBS 10 mg, day 3",95.4+/−1.1%
same,"area of colonic injury, % of total colonic area of the segment","[1]; DHEA 50 mg per rat b.i.d. oral, 72 h after TNBS challenge, TNBS control 48±2%",31+/−3%
same,reduction in the area of colonic injury,"[1]; DHEA 50 mg per rat b.i.d. oral, vs TNBS control, P<0.001",40% and ~40%
same,colon weight of the standard segment (index of inflammatory oedema),"[1]; DHEA 50 mg per rat b.i.d. oral, vs saline + TNBS, end of study",significantly (P<0.001) reduced
same,weight change following irradiation,[2]; 25 mg/kg/day ip,weight gain patterns that closely corresponded to those observed in the control group
same,daily mucositis scores vs saline control,[2]; 50 mg/kg i.p.,significantly lower than those in the saline control group
same,weight change following irradiation,[2]; 50 mg/kg/day ip,weight gain patterns that closely corresponded to those observed in the control group
same,weight change following irradiation,[2]; 250 mg/kg/day p.o.,no pattern of weight loss
same,daily mucositis scores vs saline control,[2]; 500 mg/kg/day oral,significantly lower than those in the saline control group
same,weight change following irradiation,[2]; 500 mg/kg/day p.o.,no pattern of weight loss
